# Results reported in patent publication US20260166113A1, “COMPOSITIONS AND METHODS FOR TREATING RENAL CANCER” (The Regents of the University of Michigan, priority 2022, published 2026).
# “Also recorded” adds a separate entry of the source.
# How the values were obtained:
# [1] = tested on: 5 RCC cell lines (786-0, 769-P, A-498, Caki-1, Caki-2); assay: Kinase inhibition, DIA-MS phosphoproteome of treated RCC cell lines; format: cell-based; conditions: treated at calculated IC50 for 1.5 hours; for phosphorylation of signaling-related downstream substrates: DIA-MS
# Description: For in vitro experiments assessing the impact of select kinase inhibition on renal cancer cell models (786-0, 769-P, A-498, Caki-1, and Caki-2), the kinase inhibitors, Adaversotib, Everolimus, Sapanisterib, Gefitinib, and Trametinib were dissolved in dimethyl sulfoxide (DMSO) and subjected to sonication in a water bath at room temperature. Following an assessment of individual cell line growth rates to enable calculation of half maximal inhibitory concentration (IC50), cells were seeded in triplicate at concentrations of either 1,000 cells/well (786-0, 769-P, A-498, Caki-2) or 10,000 cells/well (Caki-1). Post-24 hour seeding, cells were subjected to kinase inhibitors at final concentrations of 1 nm, 10 nM, 50 nM, 100 nM, 500 nM, […], with non-treated cells and DMSO treated cells included as controls. Cell growth was measured on day 1 (kinase inhibitor treatment), day 4, and day 6 using the colorimetric CellTiter 96® Aqueous One Cell Proliferation Solution Assay (MTS) following the manufacturer's instructions. IC50 for each cell line in response to single kinase inhibitor exposure was determined by plotting inhibitor concentration against percent activity relative to DMSO-treated controls and calculating the x-intercept of the linear logarithmic trend line. For phosphoproteomic characterization of renal cell models treated with individual kinase inhibitors, six treatment conditions were devised—control, Adaversotib treatment, Everolimus treatment, Sapanisterib treatment, Gefitinib treatment, and Trametinib treatment—and cells were seeded at ˜5E6 cells/15 cm plate and allowed to reach ˜80% confluency. 30 minutes prior to kinase inhibitor treatment, fresh media was exchanged. Cells were then treated with kinase inhibitors at calculated IC50 values for 1.5 hours. Media was removed and cells were three times with a volume of ice-cold PBS. Cells were scraped using 1.5 mL of ice-cold PBS, transferred to Eppendorf tubes, and spun at 3,000×g for 5 minutes at 4° C. A volume of lysis buffer (8 M urea, 75 mM NaCl, 50 mM Tris, pH 8.0, 1 mM EDTA, […] aprotinin, […] leupeptin, 1 mM PMSF, 10 mM NaF, Phosphatase Inhibitor Cocktail 2 and Phosphatase Inhibitor Cocktail 3 [1:100 dilution], and 20 mM PUGNAc) was added and cells lysed. Subsequent sample preparation and ESI-LC-MS/MS analysis for global proteomic and phosphoproteomic characterization for DIA analysis were performed as described for tissue samples.
# Analysis of the DIA data from the kinase inhibitor study (whole proteome and phosphopeptide enriched data) was performed as described above. For each data type, the libraries were built from the corresponding 30 DIA runs (6 treatments x 5 cell lines) supplemented with 8 or 9 fractionated DDA files for whole proteome and phosphopeptide-enriched samples, respectively. The resulting whole proteome spectral library contained 8882 proteins and 173932 precursors; the phosphopeptide enriched sample library contained 7841 proteins and 101491 precursors (including non-phosphorylated proteins and peptides). After DIA-NN quantification, the final quantification table for the phosphopeptide-enriched dataset contained quantification information for 46577 phosphorylated peptides forms, representing 22161 peptide sequences from 5154 proteins. The whole proteome dataset table contained quantification for 7654 genes.
# [2] = tested on: metastatic papillary RCC cell line ACHN1; assay: Cell viability by CellTiter-Glo assay; format: cell-based; conditions: 120 hrs incubation; for effect on cell viability: FIG. 23D
# Description: (§1) The cell viability was determined by CellTiter-Glo assays (Promega). Cells were seeded in 96-well plates (3000 cells per well) in respective culture medium. After 24 hrs incubation, a serial dilution of compounds was added into plates with six replications for each dose. After 120 hrs incubation, the CellTiter-Glo assays were performed based on the manufacturer's instruction to analyze cell proliferation rates. The bioluminescence signal was acquired by the Infinite M1000 Pro plate reader (Tecan). The data were analyzed by GraphPad Prism software (GraphPad Software).
# metastatic RCC = conditions: everolimus versus sunitinib; literature ref 85; cited from earlier work
# 786-O renal cancer cells [3] = assay: Cell morphology by IncuCyte ZOOM assay; format: cell-based; conditions: 30 μM, 24 hr, FIG. 18K
# Description: (§2) 786-O cells were maintained in Gibco RPMI-1640 supplemented with 10% FBS. CAS 668467-91-2 (UCHL-1 inhibitor) was purchased from Sigma-Aldrich (L4170) and its impact on cell viability was evaluated. Briefly, 2000 cells were seeded on white flat bottom 96 well plates and were treated with increasing concentrations of the inhibitor for a week. CellTiter-Glo Luminescent Cell Viability Assay (Promega) was used to assess cell viability and IC-50 was calculated using a graph pad. Impact of UCHL-1 inhibitor on cell morphology was evaluated using IncuCyte ZOOM assay. For western blot analysis, cell lysates were harvested from control and UCHL-1 treated 786-O cells. Following protein quantification, lysates were resolved in NuPAGE Bis-Tris Protein Gel (ThermoFisher Scientific), transferred on to nitrocellulose membranes, blocked with 5% milk, and incubated overnight with UCHL-1 antibody (HPA005993, Sigma-Aldrich). Following day, membranes were washed with TBST buffer, incubated with HRP-conjugated secondary antibodies, washed, and imaged using Odyssey Fc imager (LiCOR Biosciences).
# 786-O renal cancer cells [4] = assay: CellTiter-Glo Luminescent Cell Viability Assay; format: cell-based; conditions: increasing concentrations for a week, FIG. 18J
# Description: as §2
# [5] = tested on: neuroblastoma cell line NB1 (NB-1); assay: Cell viability by CellTiter-Glo assay; format: cell-based
# Description: as §1
# [6] = tested on: Akt signaling pathway in 786-O cells; assay: Western blot analysis of Akt signaling; format: cell-based; conditions: FIG. 18L
# Description: as §2
# ccRCC cell line Caki-1 = assay: In vitro drug treatment and growth inhibition assessment (AlamarBlue cell viability); format: cell-based; conditions: 1, 5, 25 μM, treatment 7 days, FIG. 18J
# Description: (§3) The ccRCC cell line Caki-1 and a control cell line HK-2 were maintained in Dulbecco's Modified Eagle Medium/Nutrient Mixture F-12 (DMEM/F-12) culture medium (Gibco-11320033) supplemented with 10% FBS (Sigma, F-9665) and 1% Pen Strep (Gibco, 10,000 U/mL-15140122). All cell lines were seeded at 50,000 cells/well in duplicates in 24-well plates at day 0 and were treated with either UCHL1 inhibitor (CAS 668467-91-2-Calbiochem, Sigma Aldrich-662086-10 MG) or GLUL inhibitor (L-Methionine sulfoximine, Sigma Aldrich-M5379-500 MG) upon reaching 50-60% confluency at day 3 in culture. For both UCH-L1inhibitor or GLUL inhibitor treatment, the working concentrations were used at 1 μM, 5 μM, and 25 μM. Treatment was maintained in culture for a total of 7 days and growth inhibition assessment was performed using AlamarBlueTM Cell Viability Reagent (Invitrogen-DAL1025) at a ratio of 1:10 for 4 hours according to the manufacturer's protocol. Plots and IC50 concentrations were produced in Prism GraphPad (version 9.2.0) by plotting the percent growth inhibition on the y-axis and the Log (concentration) on the x-axis. The corresponding IC50 was extracted from the nonlinear regression curve fitting analysis using Prism GraphPad. Cells treated with only a growth medium without any drugs were used as negative controls.
# [7] = tested on: normal kidney HK-2 cell line; assay: as above; format: cell-based; conditions: HK-2 normal kidney control; 1, 5, 25 μM; treatment 7 days
# Description: as §3
# skrc42.EV = conditions: FIG. 21G
# Description: as §3
compound,measurement,setting,value
COc1cc2ncnc(Nc3ccc(F)c(Cl)c3)c2cc1OCCCN1CCOCC1 [gefitinib],phosphorylation of signaling-related downstream substrates,[1],minimal impact
C=CCn1c(=O)c2cnc(Nc3ccc(N4CCN(C)CC4)cc3)nc2n1-c1cccc(C(C)(C)O)n1 [AZD-1775],response among the five kinase inhibitors (phosphorylation of downstream targeted substrates),[1],showed better responses
same,phosphorylation of signaling-related downstream substrates,[1],reduced CDK1 phosphorylation levels in all five cell lines
C#CCN(C)Cc1ccccc1 [pargyline],effect on cell viability,[2],no effect on cell viability; also recorded: did not affect
CC(C)n1nc(-c2ccc3oc(N)nc3c2)c2c(N)ncnc21 [TAK-228],response among the five kinase inhibitors (phosphorylation of downstream targeted substrates),[1],showed better responses
same,phosphorylation of signaling-related downstream substrates,[1],"reduced phosphorylation of the mTOR complex component, AKT1S1, and its downstream phospho-substrate target, EIF4EBP1"
CO[C@H]1C[C@@H]2CC[C@@H](C)[C@@](O)(O2)C(=O)C(=O)N2CCCC[C@H]2C(=O)O[C@H]([C@H](C)C[C@@H]2CC[C@@H](OCCO)[C@H](OC)C2)CC(=O)[C@H](C)/C=C(\C)[C@@H](O)[C@@H](OC)C(=O)[C@H](C)C[C@H](C)/C=C/C=C/C=C/1C [everolimus],phosphorylation of signaling-related downstream substrates,[1],minimal impact
same,therapeutic value / response in metastatic RCC,metastatic RCC,relatively poor response
CC(=O)ON=C1C(=O)N(Cc2cc(Cl)ccc2Cl)c2ccc(Cl)cc21 [CAS 668467-91-2],cell morphology,786-O renal cancer cells [3],altered morphology being elongated and stressed
same,inhibition of cell viability,786-O renal cancer cells [4],dose-dependent inhibition of cell viability
same,IC50,[2]; FIG. 23D middle,0.65 µM
same,effect on cell viability,[2]; listed as UCHL1 inhibitor,dramatic effects; also recorded: dramatic decrease in cell viability
same,effect on cell viability,"[5]; NB-1, FIG. 23D right",dramatic effects
same,IC50,[5]; neuroblastoma cell line NB1,1.6 µM
same,activation of the Akt signaling pathway,[6],suppressed activation of the Akt signaling pathway in a dose-dependent manner
same,inhibition of cell viability,ccRCC cell line Caki-1,dose-dependent inhibition of cell viability
same,sensitivity of cell viability to treatment,[7],resistant to the treatment
CS(=N)(=O)CC[C@H](N)C(=O)O (stereo partly drawn) [L-Methionine sulfoximine],sensitivity of cell viability to treatment,[7],not sensitive to the treatment
same,response of cell viability to anti-GLUL treatment,skrc42.EV,responded to the anti-GLUL treatment
